Test: In vitro toxicity assay: MTT proliferation assay
Assay type: cell-based
Conditions: 3 day incubation
Description: FIGS. 3A-3F show the in vitro reporter and toxicity assays.

Compound: NCCCC[C@H](NCCO)C(=O)O [hydroxyethyl lysine]
- Cellular viability: not affected

— patent US12636372B2, “Immolative cell-penetrating complexes for nucleic acid delivery to the lung” (The Board of Trustees of the Leland Stanford Junior …, priority 2019, dated 2026)
